Patent US8524755B2 (priority 2009, dated 2013)

Legend:
COMT = experiment: Enzyme assay COMT; type: biochemical, porcine
Description: (§1) The enzyme assays provided below will be familiar to those skilled in the art.
(§2) Analysis and Expression of Results: The results are expressed as a percent of control specific activity ((measured specific activity/control specific activity)×100) obtained in the presence of the test compounds.

I2 = experiment: Binding I2 (aa); set-up: species or system rat
Procedure: (§3) Radioligand binding assay methods utilized to measure the activity of compounds of the invention will be familiar to those skilled in the art. In each assay case, the assay components such as, for example, the cell-type, ligand, reference compound and the like, will be familiar to practitioners of such an assay.
(§4) Analysis and Expression of Results: Compounds of the invention were tested in the biochemical assays and percent inhibition of specific binding was determined. The specific ligand binding to the receptors is defined as the difference between the total binding and the nonspecific binding determined in the presence of an excess of unlabelled ligand. The results are expressed as a percent inhibition of control specific binding (100−((measured specific binding/control specific binding)×100)) obtained in the presence of test compounds.

Histamine H3 (h) = target: T1, Histamine H3 (h) (Homo sapiens, UniProt Q9Y5N1); experiment: Binding H3 (h) (ag); details: read-out: % Inhibition of Control Specific Binding @ 10 μM
T1 construct: expressed in transfected cells; host or cells: CHO cells
Procedure: as §3, §4

ATPase (Na^+/K^+) = experiment: Enzyme assay ATPase (Na+/K+); type: biochemical, porcine
Description: as §1, §2

[1] = target: T2, human GABAA α1β3 receptor (Homo sapiens, UniProt P14867+P28472); experiment: cell-based; details: for inhibition at 100 µM: read-out: α1β3 GABAA % Inhibition @ 100 μM; for IC50: α1β3 GABAA IC50 (μM)
T2 construct: expressed in transfected cells; host or cells: Xenopus laevis oocytes, cDNA injection
T2 sequence (P14867 28-456): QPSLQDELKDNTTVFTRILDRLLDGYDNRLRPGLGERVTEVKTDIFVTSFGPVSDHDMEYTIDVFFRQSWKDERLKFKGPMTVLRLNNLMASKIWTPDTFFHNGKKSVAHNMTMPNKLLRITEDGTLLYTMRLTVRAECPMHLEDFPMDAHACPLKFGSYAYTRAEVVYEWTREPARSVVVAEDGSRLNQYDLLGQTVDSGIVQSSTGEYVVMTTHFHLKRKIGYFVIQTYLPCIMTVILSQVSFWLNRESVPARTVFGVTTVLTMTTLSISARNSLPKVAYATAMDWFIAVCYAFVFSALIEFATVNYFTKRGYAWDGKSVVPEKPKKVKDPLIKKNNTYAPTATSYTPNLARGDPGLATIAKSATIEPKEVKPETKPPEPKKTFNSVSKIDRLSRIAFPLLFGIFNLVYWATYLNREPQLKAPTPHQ
T2 sequence (P28472 26-473): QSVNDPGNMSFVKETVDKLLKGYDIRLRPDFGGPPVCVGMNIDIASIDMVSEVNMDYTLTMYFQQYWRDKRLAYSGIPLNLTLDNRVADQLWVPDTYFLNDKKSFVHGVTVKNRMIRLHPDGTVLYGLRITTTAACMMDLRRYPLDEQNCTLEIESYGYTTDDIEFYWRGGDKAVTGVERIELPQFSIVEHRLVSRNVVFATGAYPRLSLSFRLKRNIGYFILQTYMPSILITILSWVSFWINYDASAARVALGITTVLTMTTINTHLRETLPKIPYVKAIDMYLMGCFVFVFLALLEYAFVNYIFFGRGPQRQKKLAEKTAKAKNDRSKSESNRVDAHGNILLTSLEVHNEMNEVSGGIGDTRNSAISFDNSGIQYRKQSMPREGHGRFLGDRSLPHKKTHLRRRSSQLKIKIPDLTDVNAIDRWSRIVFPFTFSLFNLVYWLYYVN

adenylyl cyclase (basal) = experiment: Enzyme assay adenylyl cyclase (basal); type: biochemical, rat
Description: as §1, §2

Adenosine A3 (h) = target: T3, Adenosine A3 (h) (Homo sapiens, UniProt P0DMS8); experiment: Binding A3 (h) (ag); details: read-out: % Inhibition of Control Specific Binding @ 10 μM
T3 construct: expressed in transfected cells; host or cells: HEK-293 cells
T3 sequence (P0DMS8 1-318): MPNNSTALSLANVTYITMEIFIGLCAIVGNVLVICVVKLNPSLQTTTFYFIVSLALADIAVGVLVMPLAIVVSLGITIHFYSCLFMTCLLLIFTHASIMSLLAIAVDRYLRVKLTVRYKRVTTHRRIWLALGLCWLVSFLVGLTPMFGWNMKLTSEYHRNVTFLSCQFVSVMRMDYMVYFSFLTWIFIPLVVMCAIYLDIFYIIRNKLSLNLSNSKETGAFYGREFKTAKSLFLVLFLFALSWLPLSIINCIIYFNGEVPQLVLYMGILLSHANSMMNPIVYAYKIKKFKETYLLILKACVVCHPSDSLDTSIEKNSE
Procedure: as §3, §4

[2] = target: T4, choline transporter (CHT1) (h) (Homo sapiens, UniProt Q9GZV3); experiment: Binding choline transporter (CHT1) (h) (aa); details: read-out: % Inhibition of Control Specific Binding @ 10 μM
T4 construct: expressed in transfected cells; host or cells: CHO cells
T4 sequence (Q9GZV3 1-580): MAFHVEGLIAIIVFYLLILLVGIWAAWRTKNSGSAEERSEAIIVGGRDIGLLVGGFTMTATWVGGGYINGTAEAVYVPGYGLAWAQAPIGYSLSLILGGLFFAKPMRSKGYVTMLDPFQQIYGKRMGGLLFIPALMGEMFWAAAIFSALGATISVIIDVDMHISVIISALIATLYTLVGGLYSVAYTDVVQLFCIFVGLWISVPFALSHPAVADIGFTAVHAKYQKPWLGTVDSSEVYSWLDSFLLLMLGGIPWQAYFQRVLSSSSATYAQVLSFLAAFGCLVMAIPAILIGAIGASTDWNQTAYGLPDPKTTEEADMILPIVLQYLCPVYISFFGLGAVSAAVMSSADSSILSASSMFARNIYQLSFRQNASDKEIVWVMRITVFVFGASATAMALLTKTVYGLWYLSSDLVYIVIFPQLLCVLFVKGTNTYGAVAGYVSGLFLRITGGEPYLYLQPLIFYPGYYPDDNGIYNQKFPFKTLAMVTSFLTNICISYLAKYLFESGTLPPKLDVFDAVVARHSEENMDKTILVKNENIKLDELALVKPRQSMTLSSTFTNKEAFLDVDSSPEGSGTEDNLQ
Procedure: as §3, §4

Dopamine D2S (h) = target: T5, Dopamine D2S (h) (Homo sapiens, UniProt P14416); experiment: Binding D2S (h) (aa); details: read-out: % Inhibition of Control Specific Binding @ 10 μM
T5 construct: expressed in transfected cells; host or cells: HEK-293 cells
Procedure: as §3, §4

T5 sequence (P14416 1-414 isoform P14416-2): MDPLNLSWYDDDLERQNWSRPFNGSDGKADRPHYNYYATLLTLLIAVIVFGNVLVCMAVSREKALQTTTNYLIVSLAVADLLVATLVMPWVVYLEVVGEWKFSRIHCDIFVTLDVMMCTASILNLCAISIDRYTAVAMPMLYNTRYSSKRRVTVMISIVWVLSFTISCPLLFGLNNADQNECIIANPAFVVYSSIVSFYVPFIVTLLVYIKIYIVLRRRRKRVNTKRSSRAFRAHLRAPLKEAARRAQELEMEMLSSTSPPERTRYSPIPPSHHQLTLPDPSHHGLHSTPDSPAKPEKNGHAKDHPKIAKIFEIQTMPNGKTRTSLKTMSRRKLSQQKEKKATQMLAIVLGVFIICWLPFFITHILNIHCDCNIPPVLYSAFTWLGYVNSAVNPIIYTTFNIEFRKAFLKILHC
T1 sequence (Q9Y5N1 whole entry): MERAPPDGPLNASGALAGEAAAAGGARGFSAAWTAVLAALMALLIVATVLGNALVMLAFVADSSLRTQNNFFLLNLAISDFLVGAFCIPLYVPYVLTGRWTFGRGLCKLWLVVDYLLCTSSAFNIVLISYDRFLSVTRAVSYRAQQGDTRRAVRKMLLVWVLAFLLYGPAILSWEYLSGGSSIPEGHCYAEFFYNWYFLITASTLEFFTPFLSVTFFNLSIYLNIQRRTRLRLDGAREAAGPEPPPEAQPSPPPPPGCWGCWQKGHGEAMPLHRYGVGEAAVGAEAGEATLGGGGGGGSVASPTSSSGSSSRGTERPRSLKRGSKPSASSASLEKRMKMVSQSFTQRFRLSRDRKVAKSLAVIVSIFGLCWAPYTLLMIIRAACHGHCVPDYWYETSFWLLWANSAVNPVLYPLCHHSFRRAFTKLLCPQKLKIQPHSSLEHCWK

Compound | % Inhibition of Control Values @ 10 μM (COMT) | % Inhibition of Control Specific Binding @ 10 μM (I2) | inhibition at 10 µM (Histamine H3 (h)) | % Inhibition of Control Values @ 10 μM (ATPase (Na^+/K^+)) | inhibition at 100 µM [1] | % Stimulation Relative to Control @ 10 μM (adenylyl cyclase (basal)) | inhibition at 10 µM (Adenosine A3 (h)) | inhibition at 10 µM [2] | inhibition at 10 µM (Dopamine D2S (h)) | inhibition achieved at the highest concentration [1] | IC50 [1]
CNC(=O)c1ccc(N2C(=O)N(c3ccc(C#N)c(C(F)(F)F)c3)C(=O)C2(C)C)cc1F [(MIV), 4-(3-(4-cyano-3-(trifluoromethyl)phenyl)-5,5-dimethyl-2,4-dioxoimidazolidin-1-yl)-2-fluoro-N-methylbenzamide] | 0% | 8% | -4% | −13% | 78% | 11% | 50% | 10% | -17% |  | 
CC1(C)C(=O)N(c2ccc(C#N)c(C(F)(F)F)c2)C(=S)N1c1ccc(C(=O)O)c(F)c1 [(MI), 4-(3-(4-cyano-3-(trifluoromethyl)phenyl)-5,5-dimethyl-4-oxo-2-thioxoimidazolidin-1-yl)-2-fluorobenzoic acid] | 1% | 28% | -3% | 4% | 90% | 0% | 69% | -16% | -16% | 75±18.4% | 20.7 ± 6 µM
CC1(C)C(=O)N(c2ccc(C#N)c(C(F)(F)F)c2)C(=O)N1c1ccc(C(N)=O)c(F)c1 [(MIII), 4-(3-(4-cyano-3-(trifluoromethyl)phenyl)-5,5-dimethyl-2,4-dioxoimidazolidin-1-yl)-2-fluorobenzamide] | −1% | 20% | -13% | 3% | 57% | 4% | 11% | -13% | -22% |  | 4 ± 3.15 µM
CC1(C)C(=O)N(c2ccc(C#N)c(C(F)(F)F)c2)C(=S)N1c1ccc(C(N)=O)c(F)c1 [(MII), 4-(3-(4-Cyano-3-(trifluoromethyl)phenyl)-5,5-dimethyl-4-oxo-2-thioxoimidazolidin-1-yl)-2-fluorobenzamide] | −1% | 22% | -2% | −10% | 88% | 3% | 17% | -22% | -8% | 80±10% | 
